Consider eleven compounds from ChEMBL document CHEMBL1139707, “In vitro inhibitory activity of boropinic acid against Helicobacter pylori” (2006).

Converted amounts (≈) assume the structure as drawn.

One may read the MIC as the smallest concentration in the dilution series that meets the test's criterion for growth inhibition. The low end stands for inhibition by little substance, the high end for a need for much substance.

In this test the test system is Helicobacter pylori. Description: Antimicrobial activity against Helicobacter pylori DSMZ 4867. It is filed as functional.
Take `CC(C)=CCC/C(C)=C/COc1ccc(/C=C/C(=O)O)cc1`: the MIC was > 200 µg/mL.
Under `COc1cc(C(=O)O)ccc1OCC=C(C)C` stands 50 µg/mL (≈ 212 µM).
Regarding `COc1cc(C(=O)O)ccc1OC/C=C(\C)CCC=C(C)C`, the MIC is > 200 µg/mL.
Turning to `COc1cc(/C=C/C(=O)O)ccc1OC/C=C(\C)CCC=C(C)C`, the MIC is > 200 µg/mL.
In turn, `CC1(C)S[C@@H]2[C@H](NC(=O)[C@H](N)c3ccc(O)cc3)C(=O)N2[C@H]1C(=O)O` [AMOXICILLIN] returned an MIC of 0.781 µg/mL (≈ 2.14 µM).
Under `CC(C)=CCC/C(C)=C/COc1ccc2ccc(=O)oc2c1` [AURAPTENE] stands 50 µg/mL (≈ 168 µM); under `COc1cc(/C=C/C(=O)O)ccc1OCC=C(C)C` [BOROPINIC ACID], 1.62 µg/mL (≈ 6.18 µM).
For `CC[C@H]1OC(=O)[C@H](C)[C@@H](O[C@H]2C[C@@](C)(OC)[C@@H](O)[C@H](C)O2)[C@H](C)[C@@H](O[C@@H]2O[C@H](C)C[C@H](N(C)C)[C@H]2O)[C@](C)(OC)C[C@@H](C)C(=O)[C@H](C)[C@@H](O)[C@]1(C)O` [CLARITHROMYCIN], the MIC was 1.25 µg/mL (≈ 1.67 µM). The MIC values of the last two compounds are within 1.5-fold of each other.
Under `Cc1ncc([N+](=O)[O-])n1CCO` [METRONIDAZOLE] stands > 200 µg/mL.
Take `CN(C)[C@@H]1C(O)=C(C(N)=O)C(=O)[C@@]2(O)C(O)=C3C(=O)c4c(O)cccc4[C@@](C)(O)[C@H]3C[C@@H]12` [TETRACYCLINE]: 4 µg/mL (≈ 9 µM) was the least that counted as inhibitory (MIC).
In turn, `CC(C)=CCOc1ccc(C(=O)O)cc1` [VALENCIC ACID] showed a minimum inhibitory concentration (MIC) of 100 µg/mL (≈ 485 µM).
